In article PMC9234961 (Journal of Medicinal Chemistry, 2022):
Like-named read-outs stand apart in the source and are kept apart here.

Columns and labels:
kinases (468) [1] = target: kinases (468) (Homo sapiens, UniProt Q9HAZ1); settings: CLK4; 1000 nM
kinases (468) [2] = target: kinases (468) (Homo sapiens, UniProt Q8IVH8); settings: MAP4K3; 1000 nM
kinases (468) [3] = target: kinases (468) (Homo sapiens, UniProt Q9UPZ9); settings: ICK; 1000 nM
kinases (468) [4] = target: kinases (468) (Homo sapiens, UniProt O43683); settings: BUB1; 1000 nM
kinases (468) [5] = target: kinases (468) (Homo sapiens, UniProt P36897); settings: kinase TGFBR1 (Entrez TGFBR1); compound concentration 1000 nM
kinases (468) [6] = target: kinases (468) (Homo sapiens, UniProt Q9UF33); settings: EPHA6; 1000 nM
kinases (468) [7] = target: kinases (468) (Plasmodium falciparum, UniProt P62344); settings: PFCDPK1(P.falciparum) (CDPK1); 1000 nM
kinases (468) [8] = target: kinases (468) (Homo sapiens, UniProt O15264); settings: p38-delta (MAPK13); 1000 nM
kinases (468) [9] = target: kinases (468) (Homo sapiens, UniProt P36888); settings: 1000 nM
kinases (468) [10] = target: kinases (468) (Homo sapiens, UniProt O60331); settings: PIP5K1C; 1000 nM
kinases (468) [11] = target: kinases (468) (Homo sapiens, UniProt P48730); settings: CSNK1D; 1000 nM
kinases (468) [12] = target: kinases (468) (Homo sapiens, UniProt P16591); settings: FER; 1000 nM
kinases (468) [13] = target: kinases (468) (Homo sapiens, UniProt Q13043); settings: MST1 (STK4); 1000 nM
kinases (468) [14] = target: kinases (468) (Homo sapiens, UniProt P00519); settings: 1000 nM
kinases (468) [15] = target: kinases (468) (Homo sapiens, UniProt Q8IWQ3); settings: BRSK2; 1000 nM
kinases (468) [16] = target: kinases (468) (Homo sapiens, UniProt P00519, M351T); settings: ABL1(M351T)-phosphorylated; 1000 nM
kinases (468) [17] = target: kinases (468) (Homo sapiens, UniProt Q96D53); settings: ADCK4; 1000 nM
kinases (468) [18] = target: kinases (468) (Homo sapiens, UniProt P20794); settings: MAK; 1000 nM
kinases (468) [19] = target: kinases (468) (Homo sapiens, UniProt Q9UM73); settings: ALK; 1000 nM
kinases (468) [20] = target: kinases (468) (Homo sapiens, UniProt P30530); settings: AXL; 1000 nM
kinases (468) [21] = target: kinases (468) (Homo sapiens, UniProt P06239); settings: LCK; 1000 nM
kinases (468) [22] = target: kinases (468) (Homo sapiens, UniProt P19525); settings: PRKR (EIF2AK2); 1000 nM
kinases (468) [23] = target: kinases (468) (Plasmodium falciparum, UniProt P61075); settings: PFPK5(P.falciparum) (MAL13P1.279); 1000 nM
kinases (468) [24] = target: kinases (468) (Homo sapiens, UniProt Q9UPE1); settings: kinase SRPK3 (Entrez SRPK3); compound concentration 1000 nM
kinases (468) [25] = target: kinases (468) (Homo sapiens, UniProt Q9HBY8); settings: kinase SGK2 (Entrez SGK2); compound concentration 1000 nM
kinases (468) [26] = target: kinases (468) (Homo sapiens, UniProt P08631); settings: HCK; 1000 nM
kinases (468) [27] = target: kinases (468) (Homo sapiens, UniProt P53779); settings: JNK3 (MAPK10); 1000 nM
kinases (468) [28] = target: kinases (468) (Homo sapiens, UniProt P53667); settings: LIMK1; 1000 nM
kinases (468) [29] = target: kinases (468) (Homo sapiens, UniProt Q96Q40); settings: PFTAIRE2 (CDK15); 1000 nM
kinases (468) [30] = target: kinases (468) (Homo sapiens, UniProt P10721, L576P); settings: KIT(L576P); 1000 nM
kinases (468) [31] = target: kinases (468) (Homo sapiens, UniProt P00519, T315I); settings: 1000 nM
kinases (468) [32] = target: kinases (468) (Homo sapiens, UniProt P00519, Q252H); settings: 1000 nM
kinases (468) [33] = target: kinases (468) (Homo sapiens, UniProt O14920); settings: IKK-beta (IKBKB); 1000 nM
kinases (468) [34] = target: kinases (468) (Homo sapiens, UniProt Q9NYY3); settings: PLK2; 1000 nM

Chain of kinases (468) (Homo sapiens, UniProt P36888) (P36888 27-993): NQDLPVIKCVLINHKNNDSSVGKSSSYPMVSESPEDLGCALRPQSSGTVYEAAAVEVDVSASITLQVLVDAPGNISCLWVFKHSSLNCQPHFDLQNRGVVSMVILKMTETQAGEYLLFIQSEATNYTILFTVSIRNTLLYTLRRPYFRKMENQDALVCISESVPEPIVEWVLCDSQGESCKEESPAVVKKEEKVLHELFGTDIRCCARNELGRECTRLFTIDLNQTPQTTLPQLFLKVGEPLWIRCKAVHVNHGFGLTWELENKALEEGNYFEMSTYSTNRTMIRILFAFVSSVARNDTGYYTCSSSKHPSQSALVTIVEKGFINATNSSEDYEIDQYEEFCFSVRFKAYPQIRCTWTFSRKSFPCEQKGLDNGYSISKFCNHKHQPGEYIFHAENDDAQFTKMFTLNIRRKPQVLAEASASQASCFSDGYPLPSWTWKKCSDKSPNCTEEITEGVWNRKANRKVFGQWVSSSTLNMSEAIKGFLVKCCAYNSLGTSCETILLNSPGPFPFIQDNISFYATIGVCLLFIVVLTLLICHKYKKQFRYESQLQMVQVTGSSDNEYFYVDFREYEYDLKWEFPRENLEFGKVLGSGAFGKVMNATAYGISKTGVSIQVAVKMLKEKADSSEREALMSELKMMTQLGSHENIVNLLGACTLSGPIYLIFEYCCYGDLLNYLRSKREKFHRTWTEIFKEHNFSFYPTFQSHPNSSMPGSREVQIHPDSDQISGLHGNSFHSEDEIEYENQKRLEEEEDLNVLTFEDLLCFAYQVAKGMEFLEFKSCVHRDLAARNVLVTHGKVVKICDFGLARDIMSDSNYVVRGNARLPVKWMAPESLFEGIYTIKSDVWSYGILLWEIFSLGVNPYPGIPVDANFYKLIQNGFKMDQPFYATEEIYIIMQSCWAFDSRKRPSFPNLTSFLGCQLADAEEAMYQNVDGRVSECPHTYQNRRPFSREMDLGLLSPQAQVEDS
Chain of kinases (468) (Homo sapiens, UniProt O60331) (O60331 whole entry): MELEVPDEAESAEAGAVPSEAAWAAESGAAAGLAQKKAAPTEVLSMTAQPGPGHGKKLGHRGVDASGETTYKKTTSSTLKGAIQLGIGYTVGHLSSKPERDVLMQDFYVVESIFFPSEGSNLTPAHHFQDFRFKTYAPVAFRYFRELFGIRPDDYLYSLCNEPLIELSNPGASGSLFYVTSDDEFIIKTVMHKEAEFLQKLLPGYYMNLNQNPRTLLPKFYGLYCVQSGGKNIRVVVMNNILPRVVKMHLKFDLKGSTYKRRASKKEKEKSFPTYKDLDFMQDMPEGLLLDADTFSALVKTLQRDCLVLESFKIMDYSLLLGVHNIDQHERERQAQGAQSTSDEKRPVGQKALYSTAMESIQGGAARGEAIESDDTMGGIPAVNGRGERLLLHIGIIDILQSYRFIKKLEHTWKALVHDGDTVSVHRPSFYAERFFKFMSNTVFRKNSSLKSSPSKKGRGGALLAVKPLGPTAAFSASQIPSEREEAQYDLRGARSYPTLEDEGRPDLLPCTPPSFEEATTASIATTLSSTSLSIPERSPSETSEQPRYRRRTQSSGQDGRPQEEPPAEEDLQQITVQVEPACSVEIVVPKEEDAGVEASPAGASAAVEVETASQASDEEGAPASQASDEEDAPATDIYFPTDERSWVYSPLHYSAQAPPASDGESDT
Chain of kinases (468) (Homo sapiens, UniProt O15264) (O15264 whole entry): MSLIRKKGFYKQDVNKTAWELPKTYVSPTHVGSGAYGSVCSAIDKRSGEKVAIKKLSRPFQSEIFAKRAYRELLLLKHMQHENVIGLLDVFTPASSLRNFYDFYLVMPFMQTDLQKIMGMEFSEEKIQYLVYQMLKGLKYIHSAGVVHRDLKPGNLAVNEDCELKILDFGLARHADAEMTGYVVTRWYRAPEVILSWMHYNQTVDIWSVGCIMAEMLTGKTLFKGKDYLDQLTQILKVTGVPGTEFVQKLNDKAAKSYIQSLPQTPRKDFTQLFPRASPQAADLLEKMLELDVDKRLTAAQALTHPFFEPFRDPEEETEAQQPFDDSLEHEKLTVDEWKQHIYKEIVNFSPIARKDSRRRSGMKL
Chain of kinases (468) (Homo sapiens, UniProt P06239) (P06239 whole entry): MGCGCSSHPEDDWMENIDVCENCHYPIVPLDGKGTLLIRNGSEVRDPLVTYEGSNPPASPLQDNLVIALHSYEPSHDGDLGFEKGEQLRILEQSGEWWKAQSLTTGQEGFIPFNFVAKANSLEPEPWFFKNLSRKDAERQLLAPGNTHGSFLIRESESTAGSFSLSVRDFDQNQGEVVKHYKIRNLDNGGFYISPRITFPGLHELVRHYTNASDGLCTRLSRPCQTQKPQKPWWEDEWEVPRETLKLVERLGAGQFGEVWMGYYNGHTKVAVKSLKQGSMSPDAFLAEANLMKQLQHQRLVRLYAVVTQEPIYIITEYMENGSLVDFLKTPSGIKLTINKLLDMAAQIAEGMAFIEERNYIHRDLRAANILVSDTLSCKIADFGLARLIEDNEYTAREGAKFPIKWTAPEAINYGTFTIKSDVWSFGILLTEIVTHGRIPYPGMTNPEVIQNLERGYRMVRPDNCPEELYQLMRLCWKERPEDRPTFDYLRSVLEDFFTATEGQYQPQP
Chain of kinases (468) (Plasmodium falciparum, UniProt P61075) (P61075 whole entry): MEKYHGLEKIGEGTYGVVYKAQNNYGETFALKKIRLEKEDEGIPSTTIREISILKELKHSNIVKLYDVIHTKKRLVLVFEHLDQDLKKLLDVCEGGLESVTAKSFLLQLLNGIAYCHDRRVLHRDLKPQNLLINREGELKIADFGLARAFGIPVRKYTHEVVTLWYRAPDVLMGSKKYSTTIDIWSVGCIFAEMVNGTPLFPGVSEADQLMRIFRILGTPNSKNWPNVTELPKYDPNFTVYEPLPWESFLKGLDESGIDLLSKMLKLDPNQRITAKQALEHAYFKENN
Chain of kinases (468) (Homo sapiens, UniProt P48730) (P48730 whole entry): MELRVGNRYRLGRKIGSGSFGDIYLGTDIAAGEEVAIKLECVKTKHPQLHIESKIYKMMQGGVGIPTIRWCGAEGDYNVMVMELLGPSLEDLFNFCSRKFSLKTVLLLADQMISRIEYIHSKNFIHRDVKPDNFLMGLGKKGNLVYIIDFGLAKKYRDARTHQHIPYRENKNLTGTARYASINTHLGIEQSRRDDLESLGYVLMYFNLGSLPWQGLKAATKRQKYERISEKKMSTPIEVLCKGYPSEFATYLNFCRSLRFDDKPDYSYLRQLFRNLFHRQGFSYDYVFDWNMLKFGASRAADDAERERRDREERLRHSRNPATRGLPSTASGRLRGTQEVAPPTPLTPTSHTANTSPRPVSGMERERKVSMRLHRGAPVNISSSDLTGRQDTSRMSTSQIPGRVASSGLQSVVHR
Chain of kinases (468) (Homo sapiens, UniProt P16591) (P16591 whole entry): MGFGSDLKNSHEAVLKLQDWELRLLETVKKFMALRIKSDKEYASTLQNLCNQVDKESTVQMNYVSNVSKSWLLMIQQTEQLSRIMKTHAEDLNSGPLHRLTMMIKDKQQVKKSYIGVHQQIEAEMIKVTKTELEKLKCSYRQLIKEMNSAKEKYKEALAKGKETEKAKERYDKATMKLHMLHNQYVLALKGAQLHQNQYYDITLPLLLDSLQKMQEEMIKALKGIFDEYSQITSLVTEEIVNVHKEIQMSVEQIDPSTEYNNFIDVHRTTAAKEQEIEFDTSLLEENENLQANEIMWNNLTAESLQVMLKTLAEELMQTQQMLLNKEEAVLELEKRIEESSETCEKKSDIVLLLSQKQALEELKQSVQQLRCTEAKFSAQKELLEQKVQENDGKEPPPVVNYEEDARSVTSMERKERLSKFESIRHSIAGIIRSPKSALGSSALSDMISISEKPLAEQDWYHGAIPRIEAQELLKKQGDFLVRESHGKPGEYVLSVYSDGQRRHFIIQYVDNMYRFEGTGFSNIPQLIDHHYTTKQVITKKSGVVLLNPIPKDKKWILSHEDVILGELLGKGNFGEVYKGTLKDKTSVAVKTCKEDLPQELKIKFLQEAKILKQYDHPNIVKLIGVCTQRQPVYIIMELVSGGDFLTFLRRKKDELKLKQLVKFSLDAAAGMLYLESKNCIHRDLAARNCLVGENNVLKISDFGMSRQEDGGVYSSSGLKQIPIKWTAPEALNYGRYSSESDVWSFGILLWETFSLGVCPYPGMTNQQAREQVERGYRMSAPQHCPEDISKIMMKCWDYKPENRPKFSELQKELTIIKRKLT
Chain of kinases (468) (Homo sapiens, UniProt P30530) (P30530 26-894): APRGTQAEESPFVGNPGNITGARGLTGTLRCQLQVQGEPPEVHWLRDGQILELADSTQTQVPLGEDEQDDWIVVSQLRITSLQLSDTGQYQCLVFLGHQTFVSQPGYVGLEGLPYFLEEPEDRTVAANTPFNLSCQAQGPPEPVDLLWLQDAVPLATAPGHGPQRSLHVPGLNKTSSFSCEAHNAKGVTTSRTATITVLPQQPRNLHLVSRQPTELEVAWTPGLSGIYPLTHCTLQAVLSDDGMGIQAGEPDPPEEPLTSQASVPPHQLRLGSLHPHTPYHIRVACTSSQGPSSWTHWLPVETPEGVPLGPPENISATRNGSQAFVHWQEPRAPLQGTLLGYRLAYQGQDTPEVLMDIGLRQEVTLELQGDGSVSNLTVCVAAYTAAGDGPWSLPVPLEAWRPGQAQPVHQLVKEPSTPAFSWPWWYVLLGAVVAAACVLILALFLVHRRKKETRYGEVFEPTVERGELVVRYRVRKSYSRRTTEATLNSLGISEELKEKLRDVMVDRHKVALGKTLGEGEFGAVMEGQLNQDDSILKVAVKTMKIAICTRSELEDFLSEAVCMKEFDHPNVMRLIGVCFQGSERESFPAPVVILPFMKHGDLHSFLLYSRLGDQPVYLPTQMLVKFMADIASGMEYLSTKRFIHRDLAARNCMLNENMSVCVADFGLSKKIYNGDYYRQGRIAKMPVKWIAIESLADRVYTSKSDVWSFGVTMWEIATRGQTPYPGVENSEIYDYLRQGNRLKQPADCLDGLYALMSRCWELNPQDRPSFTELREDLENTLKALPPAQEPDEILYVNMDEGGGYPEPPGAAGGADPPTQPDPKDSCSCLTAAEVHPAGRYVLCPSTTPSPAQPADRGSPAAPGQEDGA

C[C@H]1C[C@@H](O)CN(c2ncc(Cl)c(Nc3ccc4c(c3)c3c(c(=O)n4C)OCC(F)(F)[C@H](C4CC4)N3)n2)C1 [CCT373566_9A]
Percent Control (kinases (468) [1]): 91%
Percent Control (kinases (468) [2]): 100%
Percent Control (kinases (468) [3]): 100%
Percent Control (kinases (468) [4]): 94%
Percent Control (kinases (468) [5]): 89%
Percent Control (kinases (468) [6]): 100%
Percent Control (kinases (468) [7]): 69%
Percent Control (kinases (468) [8]): 94%
Percent Control (kinases (468) [9]; FLT3-autoinhibited): 98%
Percent Control (kinases (468) [9]; FLT3): 99%
Percent Control (kinases (468) [10]): 91%
Percent Control (kinases (468) [11]): 99%
Percent Control (kinases (468) [12]): 100%
Percent Control (kinases (468) [13]): 99%
Percent Control (kinases (468) [14]; ABL1-nonphosphorylated): 92%
Percent Control (kinases (468) [14]; ABL1-phosphorylated): 99%
Percent Control (kinases (468) [15]): 100%
Percent Control (kinases (468) [16]): 90%
Percent Control (kinases (468) [17]): 93%
Percent Control (kinases (468) [18]): 93%
Percent Control (kinases (468) [19]): 98%
Percent Control (kinases (468) [20]): 95%
Percent Control (kinases (468) [21]): 100%
Percent Control (kinases (468) [22]): 95%
Percent Control (kinases (468) [23]): 89%
Percent Control (kinases (468) [24]): 90%
Percent Control (kinases (468) [25]): 86%
Percent Control (kinases (468) [26]): 98%
Percent Control (kinases (468) [27]): 87%
Percent Control (kinases (468) [28]): 57%
Percent Control (kinases (468) [29]): 98%
Percent Control (kinases (468) [30]): 100%
Percent Control (kinases (468) [31]; ABL1(T315I)-nonphosphorylated): 89%
Percent Control (kinases (468) [31]; ABL1(T315I)-phosphorylated): 88%
Percent Control (kinases (468) [32]; ABL1(Q252H)-nonphosphorylated): 94%
Percent Control (kinases (468) [32]; ABL1(Q252H)-phosphorylated): 98%
Percent Control (kinases (468) [33]): 91%
Percent Control (kinases (468) [34]): 87%
